A word on the inhibition: it is the drop in the measured response relative to a control, in per cent.

This is an account of results in EP4467141A1, “PYRAZOLO-QUINOLINES AS SELECTIVE INHIBITORS OF GENOTOXIC STRESS-INDUCED IKK/NF- KB PATHWAYS FOR CANCER THERAPY” (Max-Delbrück-Centrum für Molekulare Medizin in der …, priority 2023, dated 2024).

Molecules are shown by their SMILES.

Holding throughout (experiment): Kinase panel study
Holding throughout (type): biochemical
What all share (details): read-out: Percentage of inhibition; for inhibition at 1 µM: 1000nM; for inhibition at 10 µM: 10000nM

The target in one test is T1, AXL (Homo sapiens, UniProt P30530).
T1 construct: purchased Thermo Fisher Scientific
T1 sequence (P30530 26-894): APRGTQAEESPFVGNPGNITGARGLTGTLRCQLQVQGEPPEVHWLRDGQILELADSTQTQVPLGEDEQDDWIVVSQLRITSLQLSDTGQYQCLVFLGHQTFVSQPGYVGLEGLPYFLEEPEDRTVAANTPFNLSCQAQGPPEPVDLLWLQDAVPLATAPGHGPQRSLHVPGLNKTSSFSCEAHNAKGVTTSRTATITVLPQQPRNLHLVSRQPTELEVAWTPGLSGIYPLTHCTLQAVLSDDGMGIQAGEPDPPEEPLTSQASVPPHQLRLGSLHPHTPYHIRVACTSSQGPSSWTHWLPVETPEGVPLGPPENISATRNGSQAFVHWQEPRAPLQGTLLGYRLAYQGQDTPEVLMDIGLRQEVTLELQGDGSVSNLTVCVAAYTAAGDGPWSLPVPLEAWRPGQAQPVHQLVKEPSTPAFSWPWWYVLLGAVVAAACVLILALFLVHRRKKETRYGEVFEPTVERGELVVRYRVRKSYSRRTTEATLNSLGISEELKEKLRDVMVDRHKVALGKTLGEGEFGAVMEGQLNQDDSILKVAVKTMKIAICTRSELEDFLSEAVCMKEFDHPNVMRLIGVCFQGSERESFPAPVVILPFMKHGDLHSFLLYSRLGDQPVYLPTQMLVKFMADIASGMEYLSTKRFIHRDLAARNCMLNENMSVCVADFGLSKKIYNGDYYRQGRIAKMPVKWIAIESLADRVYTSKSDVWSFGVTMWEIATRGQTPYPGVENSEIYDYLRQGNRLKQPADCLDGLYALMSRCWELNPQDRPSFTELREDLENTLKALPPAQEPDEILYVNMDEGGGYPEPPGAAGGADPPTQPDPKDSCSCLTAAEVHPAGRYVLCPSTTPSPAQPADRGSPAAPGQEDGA
The procedure, abridged:
(§1)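 Percent inhibition of each kinase by the test compound, given at either 1 µM or 10 µM, came from a contracted panel run by ZLyte or Adapta protocol.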

The target of the next test is T2, LCK (Homo sapiens, UniProt P06239).
T2 construct: purchased Thermo Fisher Scientific
The procedure, abridged: as §1

The target of the next test is T3, PHKG2 (Homo sapiens, UniProt P15735).
T3 construct: purchased Thermo Fisher Scientific
T3 sequence (P15735 1-406): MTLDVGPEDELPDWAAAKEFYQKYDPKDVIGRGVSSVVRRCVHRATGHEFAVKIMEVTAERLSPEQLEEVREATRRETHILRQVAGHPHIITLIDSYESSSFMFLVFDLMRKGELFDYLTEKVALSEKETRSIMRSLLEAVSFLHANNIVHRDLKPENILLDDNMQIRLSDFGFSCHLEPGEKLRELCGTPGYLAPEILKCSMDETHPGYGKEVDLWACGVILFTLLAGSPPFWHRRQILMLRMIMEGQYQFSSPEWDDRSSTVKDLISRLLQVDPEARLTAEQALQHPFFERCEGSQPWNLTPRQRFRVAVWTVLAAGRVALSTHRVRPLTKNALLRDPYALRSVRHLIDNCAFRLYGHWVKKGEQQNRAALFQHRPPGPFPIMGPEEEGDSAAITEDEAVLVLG
Put shortly:
as §1

The next test concerns the target T4, TYRO3 (RSE) (Homo sapiens, UniProt Q06418).
T4 construct: purchased Thermo Fisher Scientific
T4 sequence (Q06418 41-890): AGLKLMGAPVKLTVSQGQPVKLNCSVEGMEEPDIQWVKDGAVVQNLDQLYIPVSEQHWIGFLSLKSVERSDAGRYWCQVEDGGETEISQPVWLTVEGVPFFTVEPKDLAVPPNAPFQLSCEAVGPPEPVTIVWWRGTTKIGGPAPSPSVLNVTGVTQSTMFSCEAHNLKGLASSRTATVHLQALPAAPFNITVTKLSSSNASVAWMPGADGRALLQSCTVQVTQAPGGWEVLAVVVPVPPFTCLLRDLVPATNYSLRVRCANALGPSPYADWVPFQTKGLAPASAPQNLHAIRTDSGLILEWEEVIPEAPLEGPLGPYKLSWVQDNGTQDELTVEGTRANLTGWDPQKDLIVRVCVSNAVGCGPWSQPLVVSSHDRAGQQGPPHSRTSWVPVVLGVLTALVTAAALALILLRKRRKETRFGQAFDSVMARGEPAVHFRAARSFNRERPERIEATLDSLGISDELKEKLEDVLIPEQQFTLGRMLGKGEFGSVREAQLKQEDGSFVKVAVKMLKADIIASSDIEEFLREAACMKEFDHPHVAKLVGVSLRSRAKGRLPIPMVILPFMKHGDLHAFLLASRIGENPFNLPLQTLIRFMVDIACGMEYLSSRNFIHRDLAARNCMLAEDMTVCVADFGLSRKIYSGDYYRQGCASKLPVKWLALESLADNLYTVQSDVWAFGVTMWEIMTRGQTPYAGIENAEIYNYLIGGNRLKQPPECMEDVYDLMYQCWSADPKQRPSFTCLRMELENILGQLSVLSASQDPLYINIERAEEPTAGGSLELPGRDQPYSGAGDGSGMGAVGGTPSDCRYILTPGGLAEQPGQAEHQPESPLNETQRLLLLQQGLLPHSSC
Put shortly:
as §1

T2 sequence (P06239 whole entry): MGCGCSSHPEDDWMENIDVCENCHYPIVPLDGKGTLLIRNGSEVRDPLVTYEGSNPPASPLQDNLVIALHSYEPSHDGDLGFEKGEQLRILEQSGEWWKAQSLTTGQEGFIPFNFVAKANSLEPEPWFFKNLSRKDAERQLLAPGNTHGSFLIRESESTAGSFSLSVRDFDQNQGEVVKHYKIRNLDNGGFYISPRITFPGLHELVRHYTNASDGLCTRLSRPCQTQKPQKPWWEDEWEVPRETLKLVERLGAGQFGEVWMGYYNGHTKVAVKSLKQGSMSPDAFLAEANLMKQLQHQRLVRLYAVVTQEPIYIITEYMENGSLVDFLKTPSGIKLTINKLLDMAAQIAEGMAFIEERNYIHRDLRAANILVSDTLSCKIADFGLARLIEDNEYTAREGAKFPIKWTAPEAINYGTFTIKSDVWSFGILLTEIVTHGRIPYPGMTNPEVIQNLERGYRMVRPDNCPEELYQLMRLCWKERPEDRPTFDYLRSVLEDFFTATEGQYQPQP

In the case of `COc1ccc2c(c1OC)c(=O)n1c3ccc(O)cc3c3ccnc2c31` [MW01, 5-Hydroxy-10,11-dimethoxy-9H-benzo[c]indolo[3,2,1-ij][1,5]naphthyridin-9-one], the inhibition at 1 µM on AXL came out at 51%; on LCK, 12%; on PHKG2 it was 6%; on TYRO3 (RSE), 11%. The inhibition at 10 µM at AXL came to 80%; on LCK, 37%; on PHKG2, 8%; on TYRO3 (RSE), 29%.

As to `COc1ccc2cc3c(N)nn(C(=O)c4cccc(N(C)C)c4)c3nc2c1` [MW05, (3-Amino-7-methoxypyrazolo[3,4-b]quinolin-1-yl)-[3-(dimethylamino)phenyl]methanone], the inhibition at 1 µM on AXL amounted to 4%; on LCK, 8%; at PHKG2, 6%; at TYRO3 (RSE), 7%. Further, the inhibition at 10 µM is -8% on AXL, 5% at LCK, -3% at PHKG2 and 2% at TYRO3 (RSE).
